ChEMBL document CHEMBL1145757, “QSAR study on solubility of alkanes in water and their partition coefficients in different solvent systems using PI index” (Bioorg Med Chem Lett, 2003)
≈ marks a conversion by molar mass, not a printed value.

Legend:
physchem [1] = assay: physchem
Description: Solubility in water was determined; values expressed as -log

physchem [2] = conditions: octanol/water
Description: Partition coefficient (logP)

[3] = Partition coefficient in water-cyclohexane was determined; assay type: ADME
[4] = octanol/water
Description: Partition coefficient (logP)

[5] = water/hexadecane
Description: Partition coefficient in water-hexadecane (P16) was determined

[6] = water/alkane
Description: Partition coefficient in alkanes was determined

Row | solubility (physchem [1]; water) | logP (physchem [2]) | Log Pcyc [3] | logP [4] | solubility (physchem [1]; buffer) | Log P16 [5] | Compound | Log Palk [6]
1 | 0.011 µM (≈ 0.00218 µg/mL) | 8 |  |  |  |  | CCCCCCCCCCCCCC | 
2 | 0.105 µM (≈ 0.0149 µg/mL) | 6.34 |  |  |  | 7.01 | CCCCCCCCCC [DECANE] | 
3 |  |  |  |  | 0.0214 µM (≈ 0.00364 µg/mL) |  | CCCCCCCCCCCC [DODECANE] | 
4 | 0.00398 µM (≈ 0.000902 µg/mL) |  |  | 9.57 |  |  | CCCCCCCCCCCCCCCC [HEXADECANE] | 

Second part, the compound before the results:

Row | Compound | solubility (physchem [1]; water) | logP (physchem [2]) | Log Pcyc [3] | logP [4] | solubility (physchem [1]; buffer) | Log P16 [5] | Log Palk [6]
5 | CCCC [BUTANE] |  |  | 3.62 | 2.89 | 2690 µM (≈ 156 µg/mL) |  | 
6 | CCCCCCC [HEPTANE] | 29.5 µM (≈ 2.96 µg/mL) | 4.5 |  |  |  | 5.14 | 
7 | CCCCCC [HEXANE] |  |  |  | 3.9 | 145 µM (≈ 12.5 µg/mL) |  | 
8 | C [METHANE] |  |  | 1.33 |  |  | 1.14 | 1.37
9 | CCCCCCCCC [NONANE] |  | 5.65 |  |  | 1.32 µM (≈ 0.169 µg/mL) | 6.49 | 
10 | CCCCCCCC [OCTANE] | 5.75 µM (≈ 0.657 µg/mL) | 5.15 |  |  |  | 5.79 | 
11 | CCCCC [PENTANE] | 661 µM (≈ 47.7 µg/mL) |  | 4.27 |  |  | 3.87 | 4.06
